Data taken from patent US12171856B2, “Use of salidroside derivative in external preparation for skin whitening” (SHANGHAI CHEERMORE BIOLOGICAL TECHNOLOGY CO., LTD, priority 2019, dated 2024).

What was measured:
Kunming mice = assay: Long-term toxicity test on mouse skin; format: in vivo
Procedure: Kunming mice were used to conduct the experiment in this section. SP-037 was prepared into solutions with concentrations of 2.5% (mass to volume ratio), 5% (mass to volume ratio), and 10% (mass to volume ratio) using NS. A control group, a 2.5% dosage group, a 5% dosage group, and a 10% dosage group were set, separately. One mouse was used for the blank group, and two mice were used for each of the experimental groups. Application on the dorsal skin: the hair on the back of mice was removed by depilatory cream, and a drug was applied at a corresponding concentration on the bare skin every day, which lasted for 3 months. During the test period, pictures were taken and the body weight of mice were recorded regularly, and it was observed whether there were white spots and other skin irritation or poisoning phenomena.

[1] = test system: skin at the inner side of the arm of volunteers with dark skin; assay: Skin whitening effect in volunteers (Dermalab skin color probe, melanin and L*a*b values); format: in vivo, human
Procedure: A total of 33 volunteers with dark skin were recruited, and the 33 volunteers were 22 to 38 years old. The 33 volunteers were randomly divided into 7 groups, including: a blank control group: 3, an SP-037 group: 5; a VC group: 5; a kojic acid group: 5; a thiamidol group: 5; a hydroquinone group: 5; and a 377 group: 5. A blank gel and gels with the main components of SP-037, VC, kojic acid, thiamidol, hydroquinone, and 377 respectively were prepared. An inner side of the left arm of each volunteer in each group was washed and then evenly applied with a corresponding gel every day, which lasted for 4 weeks. The Dermalab instrument was used to determine the characteristics of skin at the inner side of the arm with a skin color test probe on day 0, day 14, and day 28 to obtain melanin and L*a*b values, and according to final statistical data, the whitening effect of each component was analyzed.

Human melanocytes = assay: Inhibition of NGF/UV-induced melanin generation in human melanocytes (absorbance at 490 nm); format: cell-based; details: 60 h
Procedure: (§1) Human melanocytes and tool melanocytes were used to conduct the experiment in this section. Human melanocytes and tool melanocytes were inoculated in a 96-well plate, with a plating density of 5,000 cells/well. After the cells adhered to a wall, nerve growth factor (NGF) was added to the culture and the culture was irradiated with UV to induce the generation of melanin, which simulated a melanin generation process in vivo. Then β-D-glucoside derivatives to be tested each were added at a final concentration of 100 μM to the cells, and the cells were further cultivated in an incubator at 37° C. and 5% CO2 for 60 h, where 3 replicates were set for each group. The cells were washed with pre-cooled phosphate buffered saline (PBS), then digested with trypsin, and centrifuged, and a resulting supernatant was discarded. The cells were lysed with a NaOH (1 mol/L) solution including 10% dimethyl sulfoxide (DMSO) in a 65° C. water bath to make melanin granules completely dissolved out, and the absorbance at 490 nm was determined with a microplate reader. Finally, the absorbance value was used to reflect a melanin content.
Human melanocytes and tool melanocytes were used to conduct the experiment in this section. Human melanocytes and tool melanocytes were inoculated in a 96-well plate, with a plating density of 5,000 cells/well. After the cells adhered to a wall, NGF was added to the culture and the culture was irradiated with UV to induce the generation of melanin, which simulated a melanin generation process in vivo. SP-037 was added to the cells at 6 concentrations of 0 μM, 12.5 μM, 25 μM, 50 μM, 100 μM, and 200 μM, and then the cells were further cultivated in an incubator at 37° C. and 5% CO2 for 60 h, where 5 replicates were set for each group. The cells were washed with pre-cooled PBS, then digested with trypsin, and centrifuged, and a resulting supernatant was discarded. The cells were lysed with a NaOH (1 mol/L) solution including 10% DMSO in a 65° C. water bath to make melanin granules completely dissolved out, and the absorbance at 490 nm was determined with a microplate reader. Finally, the absorbance value was used to reflect a melanin content.
(§2) Human melanocytes and tool melanocytes were used to conduct the experiment in this section. Human melanocytes and tool melanocytes were inoculated in a 96-well plate, with a plating density of 5,000 cells/well. […] The cells were lysed with a NaOH (1 mol/L) solution including 10% DMSO in a 65° C. water bath to make melanin granules completely dissolved out, and the absorbance at 490 nm was determined with a microplate reader. Finally, the absorbance value was used to reflect a melanin content.

tool melanocytes = assay: Inhibition of NGF/UV-induced melanin generation in tool melanocytes (absorbance at 490 nm); format: cell-based; details: 60 h, FIG. 6
Procedure: as §1, with “The cells were washed with pre-cooled phosphate buffered saline (PBS), then digested with trypsin, and centrifuged, and a resulting supernatant was discarded.” left out
as §2, with “section.” for “section. Human melanocytes and tool melanocytes were inoculated in a 96-well plate, with a plating density of 5,000 cells/well.”, “content. […]” for “content.”

[2] = test system: arm skin of the volunteers; assay: Human skin irritation test (patch test); format: in vivo; details: gel with 10% SP-037 in 2% sodium carboxymethyl cellulose
Procedure: In order to further achieve the use of SP-037 in the field of skin care, it is necessary to ensure the safety of SP-037 first. In the experiment of this section, a gel (2% sodium carboxymethyl cellulose prepared with deionized water) with the main component of 10% SP-037 was prepared, then volunteers were recruited, and a patch test was conducted on the arm skin of the volunteers to evaluate the safety of SP-037.

OC[C@H]1O[C@@H](OCCc2cc(O)cc(O)c2)[C@H](O)[C@@H](O)[C@@H]1O [SP-037]
white spots, skin irritation injuries or poisoning symptoms (Kunming mice; 2.5%, 5%, 10% (mass to volume) in NS applied daily on dorsal skin): none of the mice has white spots, redness and swelling, and other skin irritation injuries, or poisoning symptoms
changes in the body weight and skin condition (Kunming mice; 2.5%, 5%, 10% (mass to volume) in NS applied daily on dorsal skin, FIG. 7 and FIG. 8): in line with the growth pattern of normal mice
white spots, skin irritation and toxicity (conclusion of long-term toxicity test) (Kunming mice; at a dosage of 10% (mass to volume ratio)): will not cause white spots, skin irritation, and toxicity
effect on melanin content in skin (skin melanin pigmentation) ([1]; gel applied daily for 4 weeks, day 0, 14, 28, FIG. 10): can significantly improve the skin melanin pigmentation
effect on skin brightness ([1]; gel applied daily for 4 weeks, day 0, 14, 28, FIG. 11): improve the skin brightness
whitening effect compared with VC, kojic acid, thiamidol, hydroquinone and 377 ([1]; gels applied daily for 4 weeks, FIG. 10 and FIG. 11): significantly better than that of raw materials VC, kojic acid, thiamidol, and hydroquinone currently on the market, but slightly inferior to that of 377
effect of SP-037 on a melanin content (Human melanocytes; 0-200 μM, human melanocytes and tool melanocytes (not separated in text), FIG. 5): can significantly inhibit the generation of melanin at a cellular level
effects of β-D-glucoside derivatives on a melanin content (Human melanocytes; final concentration 100 μM, human melanocytes and tool melanocytes (not separated in text), FIG. 1): shows the optimal effect
inhibitory activity on in vitro simulated melanin generation compared with whitening positive drugs (Human melanocytes; human melanocytes, FIG. 6): significantly better than that of the positive drugs VC, kojic acid, and hydroquinone
concentration showing an ideal effect on melanin generation (Human melanocytes; tested at 12.5-200 μM, human melanocytes and tool melanocytes, FIG. 5): 50 µM
inhibitory activity on melanin generation compared with whitening positive drugs (tool melanocytes): significantly better than that of VC and kojic acid, but slightly inferior to that of hydroquinone
irritating pain, itching felt by volunteers during patch test [2]: no irritating pain, itching, or the like
sensitization to the skin (patch test) ([2]; FIG. 9): has no sensitization to the skin
